Results as given in patent US20240415825A1, “COMPOUNDS FOR THE TREATMENT OF MALARIA” (FUNDACIÓ INSTITUT DE BIOENGINYERIA DE CATALUNYA, priority 2021, published 2024).
Read-outs that look alike come from different tables or passages of the source.

How the values were obtained:
preformed Aβ40 fibrils = target: T1, preformed Aβ40 fibrils (Homo sapiens, UniProt P05067); assay: Disaggregation of preformed Aβ40 fibrils; type: biochemical; conditions: 24 h after fibril formation, ThT and TEM
T1 construct: Amyloid-β peptide fragment 1-40 (Aβ40); purchased GenScript
Description: To test the effect of AID-X-2020 on already formed amyloid fibrils, Aβ40 DMSO solutions were diluted to 25 μM in PBS and incubated as above in order to allow fibril formation. Then, AID-X-2020 was added at different concentrations (0.1 μM AID-X-2020, 1 μM AID-X-2020 and 10 μM AID-X2020) and the mixture was incubated in the same conditions for another 24 h. The final samples always contained less than 5% DMSO to avoid interference of this solvent on Aβ40 amyloid fibril formation. Finally, ThT treatment and TEM analysis was performed as described in section 3.1 of EXAMPLE 3. The analysis of aggregation inhibition and disaggregation performed with aggregative peptides present in P. falciparum proteins were conducted in the same way.

[1] = tested on: human umbilical vein endothelial cell cultures; assay: Cytotoxicity (CC50) and in vitro therapeutic index; type: cell-based
[2] = Cytotoxicity (CC50) and in vitro therapeutic index; type: cell-based, human; conditions: human umbilical vein endothelial cells (HUVEC); human umbilical vein endothelial cell cultures
P. falciparum 3D7 strain = assay: P. falciparum growth inhibition assay (3D7 strain); type: cell-based, Plasmodium falciparum; conditions: for IC50: Plasmodium falciparum, 3D7 strain
Description: After the synchronization process, a new culture at 1.5% parasitemia and 2% hematocrit was established and 150 μL aliquots of it were transferred to 96-well plates.
The required amounts of peptides, antimalarial compounds and dyes were added in each well at different concentrations and in triplicates. A positive growth control of untreated parasites and a negative growth control of parasites treated with a lethal dose of chloroquine (1 μM) were also included.
Parasites were grown for 48 h, a complete replication cycle, in standard culturing conditions (5% O2, 5% CO2, and 90% N2 at 37° C.). After the incubation period, 3 μL of culture from each well were mixed with 197 μL of PBS containing 0.1 μM Syto 11 (Thermo Fisher Scientific Inc), to obtain a final concentration of ca. 1-10×10^6 cells/ml.
Parasitemia was assessed by flow cytometry using a LSRFortessa flow cytometer (BD Biosciences, San Jose, CA, USA) set up with the 4 lasers, 20 parameters standard configuration. The single-cell population was selected on a forward-side scatter scattergram.
Growth inhibition was calculated taking as reference values both the growth rate of the untreated culture and the growth rate of the culture treated with chloroquine.

[3] = tested on: artemisinin-resistant P. falciparum strains (3D7 and Cam 3.11 with K13 mutations); assay: Growth inhibition, artemisinin-resistant strains; type: cell-based; conditions: Plasmodium falciparum, 3D7, read-out: IC50 in artemisinin-resistant strains
From the text: P. falciparum parasites of chloroquine-sensitive (3D7 strain) and chloroquine- and artemisinin-resistant strains were processed as described in section 1.1.3 of EXAMPLE 1.
In particular, the P. falciparum resistant strains were the following: (1) strain W2 MRA-157 (BEI Resources, managed by ATCC) which is chloroquine-resistant; (2) strains 3D7 harboring the K13 mutations associated to artemisinin resistance, either M5791 or R561H (both provided by Dr. David A. Fidock and referenced in Stokes, B. H. et al., 2021); (3) Cam 3.11 strain which is chloroquine and sulfadoxine/pyrimethamine-resistant; and (4) Cam 3.11 strain modified to carry K13 mutations associated to artemisinin-resistant strains, either R561H or R539T, therefore being multiresistant strains. All Cam 3.11 strains (3) and (4) were provided by Dr. David A. Fidock and are referenced in Straimer, J. et al., 2015 and Stokes, B. H. et al., 2021.
Then, the required amount of AID-X-2020 was added to each well at different concentrations (0.0001, 0.001, 0.01, 1 and 10 μM) and triplicates.

Aβ40 = target: T2, Aβ40 (Homo sapiens, UniProt P05067); assay: In vitro Aβ40 aggregation (ThT fluorescence, TEM); type: biochemical; conditions: 25 μM Aβ40
T2 construct: Amyloid-β peptide fragment 1-40 (Aβ40); purchased GenScript
Description: For the in vitro analysis of As peptide fragment 1-40 (Aβ40) aggregation, 1 mg of Aβ40 (GenScript) was dissolved in 500 μL of 1,1,1,3,3,3-hexafluoro-2-propanol (HFIP, Fluka) under vigorous stirring for 1 h and sonicated for 30 min in a sonication bath. Afterwards, the solution was stirred for 1 h and maintained at 4° C. for 30 min. Aliquots were prepared, HFIP was evaporated under a nitrogen stream for a few seconds and the peptide was stored at −20° C. […] The final sample always contained less than 5% DMSO to avoid interference of this solvent on Aβ40 amyloid fibril formation. Finally, ThT treatment was performed as described above.
25 μM ThT was added to each sample and fluorescence was measured by exciting samples at 440 nm and recording the emission from 465 nm to 600 nm. A blank measurement of each sample was done before adding ThT.
A carbon-coated copper grid was deposited on top of a 50-μL drop of each solution for 30 min. Then, the excess liquid was removed with filter paper and the grid was placed on top of a water drop for 30 s and finally negatively stained for 2 min with 20 μL of 2% uranyl acetate. Samples were observed using a JEM 1010 transmission electron microscope (JEOL Ltd., Japan). Images were acquired using a CCD Orius camera (Gatan, Inc., USA).

[4] = In vivo toxicity assay in mice; design: species or system BALB/c mice
Description: BALB/c female and male mice (Janvier Laboratories) were maintained with unlimited access to food and water under standard environmental conditions (20-24° C. and 12/12 h light/dark cycle). […] First, the lowest dose was intravenously injected to one female and one male mice. An oxygen stream of 4% isoflurane was used to anesthetize the mice, which were then maintained during the whole procedure (less than 3 minutes) with 2.5% isoflurane.
After the administration, mice were observed and different parameters related to their behavior (lethargy, motility alterations, seizures, coma, automutilation, aggressiveness, vocalizations, stereotyped movements) and physical conditions (pain, respiratory disturbances, tachycardia or bradycardia, dehydration, hair loss, body weight loss, dermatitis, bad hygiene, pruritus, tearing) were followed. If after 48 h no deleterious effects were observed, the following dose was administered to two other male and female mice.

[5] = tested on: P. falciparum NF54-gexp02-Tom strain gametocytes; assay: microbe, parasite or virus in culture; type: cell-based; conditions: Plasmodium falciparum, NF54, 48 h
Description: Cultures of the P. falciparum NF54-gexp02-Tom strain (developed and authenticated by Portugaliza, H. P. et al., 2019 and kindly provided by Prof. Alfred Cortes), were maintained in standard conditions in RPMI medium supplemented with 0.5% Albumax II and 2 mM choline, synchronized in ring stages with sorbitol lysis, and diluted to 2% parasitemia. To trigger sexual conversion, choline was removed from the medium and cultures were maintained in the same conditions for 48 h after synchronization (cycle 0). In the next cycle (cycle 1), parasites were treated with 50 mM N-acetylglucosamine (GlcNac) in order to kill asexual parasites, and maintained in RPMI supplemented with 10% human serum. Medium was refreshed daily and GlcNac was kept during 4 days.
Controls of untreated parasites as well as of parasites treated with a lethal dose of chloroquine were prepared. Gametocytemia was monitored daily by light microscopy until the majority of parasites (˜90%) could be identified as stage V gametocytes. At that point, Giemsa smears of each well were prepared and mature gametocytes were manually counted (10,000 cells were counted for each replica by two investigators blinded to group assignment). […] Afterwards, the culture was treated for 48 h with the drugs and the gametocytemia determined as above.

T2 sequence (P05067 672-711 limits assumed, species assumed): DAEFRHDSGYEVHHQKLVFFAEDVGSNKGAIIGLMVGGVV
T1 sequence (P05067 672-711 limits assumed, species assumed): as above

CCN(CC)c1ccc(/C=C/c2cc[n+](CCCCCCCCCC[n+]3ccc(/C=C/c4ccc(N(CC)CC)cc4)c(C)c3)cc2C)cc1 [AID-X-2020, 1,1′-(decane-1,10-diyl)bis{4-[(E)-4-(diethylamino)styryl]-3-methylpyridin-1-ium} dibromide]
concentration disassembling preformed Aβ40 fibrils (preformed Aβ40 fibrils): > 90 nM
Therapeutic index in vitro ([1]; 50% cytotoxic concentration (CC50)/IC50 in 3D7 strain): 23.3
therapeutic index (CC50/IC50) ([1]; HUVEC CC50, text value): 37.8
CC50 [2]: 3400 nM
in vitro IC10 (P. falciparum 3D7 strain; P. falciparum cultures): 27 nM
IC50 (P. falciparum 3D7 strain; 48 h, Table 2, read-out: IC50 in 3D7 strain (μM) ± SEM): 0.09 ± 0.02 µM
IC50 (P. falciparum 3D7 strain; Example 8, read-out: IC50 in 3D7 strain): 0.09 µM
IC50 (P. falciparum 3D7 strain; read-out: IC50 in P. falciparum in vitro cultures): 0.09 ± 0.002 µM
IC50 [3]: 90 to 160 nM
inhibition of the aggregation of Aβ40 (Aβ40): strong inhibitor
dose at which adverse effects start ([4]; female mice): 10 mg/kg
dose at which toxicity starts being observed ([4]; male mice): 17 mg/kg
IC50 ([5]; read-out: IC50 on early gametocytes): 95 ± 3 nM
IC50 ([5]; read-out: IC50 on mature stage V (late) gametocytes): 103 ± 3 nM
